Columns and labels:
SARS-CoV-2 D614G strain = type: cell-based
IAV WSN = type: cell-based, influenza A virus

Compound | reduction of SARS-CoV-2 infection (SARS-CoV-2 D614G strain) | reduction in viral titre after tenth passage (IAV WSN) [log] | blocked SARS-CoV-2 infections (SARS-CoV-2 D614G strain)
O=C(Nc1cc(C(F)(F)F)cc(C(F)(F)F)c1)Nc1cc(C(F)(F)F)cc(C(F)(F)F)c1 [DPUD-1, 1,3-bis(3,5-bis(trifluoromethyl)phenyl)urea] | greater than 99% | > 5 | –
O=C(Nc1ccccc1)Nc1ccccc1 [DPU, 1,3-diphenylurea, reference compound] | – | – | did not show any inhibitory effect
